Four compounds from article PMC13195669, “GPR3 Ligands Discovered through Combined Virtual and Conformational Biosensor-Based Screening” (Journal of the American Chemical Society, 2026) can be followed below.

Molecules are shown by their SMILES.

Assay [1] addresses T1, GPR3 (Homo sapiens, UniProt P46089, INS231ASEIGTGFPFDPHYVEVLGERMHYVDVGPRDGTPVLFLHGNPTSSYVWRNIIPHVAPTHRCIAPDLIGMGKSDKPDLGYFFDDHVRFMDAFIEALGLEEVVLVIHDWGSALGFHWAKRNPERVKGIAFMEFIRPIPTWDEWPEFARETFQAFRTTDVGRKLIIDQNVFIEGTLPMGVVRPLTEVEMDHYREPFLNPVDREPLWRFPNELPIAGEPANIVALVEEYMDWLHQSPVPKLLFWGTPGVLIPPAEAARLAKSLPNCKAVDIGPGLNLLQEDNPDLIGSEIARWLSTLEISGGS).
T1 construct: ligated to the full-length C-terminus; expressed in transfected cells; some experiments transient
Briefly: BRET-based conformational GPR3 biosensor (GPR3-HaloTag/Nluc) in HEK293A cells. The conditions noted are these: for BRET response of GPR3 biosensor (direction, words): HEK293A. The assay is classed as cell-based. From the text:
To develop a conformational GPR3 biosensor that can be used in a microtiter well plate format, we employed the intramolecular BRET design previously validated for several GPCRs. − The BRET donor NanoLuc was fused to the receptor’s full-length C-terminus and the self-labeling protein tag, HaloTag, was inserted into GPR3′s third intracellular loop between amino acids Arg231 and His232 (Figure a; sequence in Figure S1). […]
Plasmids and molecular cloning […]
Plasmids encoding the conformational biosensors α2AAR- and β2AR-HaloTag/Nluc9 and the Gs heterotrimer dissociation sensor10 were previously described. The expression plasmid encoding N-terminally HA-tagged GPR3 (cat. no.
#GPR003TN00) on a pcDNA3.1+ vector was obtained from the cDNA resource center (cdna.org). The Nluc and HaloTag in-serts were amplified with overhanging restriction sites from β2AAR- HaloTag/Nluc and ligated to the full-length C-terminus or inserted into icl3 of GPR3, respectively, to obtain the conformational biosensor GPR3-HaloTag/Nluc. Point mutants of GPR3-HaloTag/Nluc were generated using the GeneArt Site-directed Mutagenesis System (Thermo Fisher Scientific). All con-structs were verified by sequencing (Eurofins genomics). […]
serum albumin (BSA) were obtained from Sigma Aldrich (Merck KGaA). Dulbecco's Modified Eagle's Medium (DMEM), Dul- […]
Diphenyleneiodonium chloride (DPI) and AF64394 were purchased from Tocris (Bio -Techne). The TMB (3, 3', 5, 5' tetramethyl benzidine) substrate reagent set was […]
were obtained in a single kit from Promega (cat. no. N1662). D-luciferin-sodium and the S1PR1 agonist III were from Med-ChemExpress. The Rluc substrate coelenterazine 400a was from NanoLight Technology (cat. no. 340 -10). White -wall, white - bottomed 96 -well, black -wall, black bottomed and transparent 96 -well microtiter plates were from Brand.
HEK293A cells were used for transient transfection and grown in Dulbecco’s modified Eagle’s medium (DMEM) supplemented with 2 mM glutamine, 10 % fetal calf serum, streptomycin (0.1 mg/mL), and penicillin (100 U/mL) at 37 °C with 5 % CO2. For the generation of stable GPR3 -HaloTag/Nluc cells, HEK293A cells grown in T75 flasks were transfected at a confluence of 40 – […]
Absence of mycoplasma contamination was routinely
(§1) Transient transfection and plating
Resuspended cells (300,000 cells/mL) were transfected in suspension with a total of 1 μg DNA/mL suspension using PEI (1 mg/ml stock solution; 3 μL PEI solution per μg DNA). […]
Cells mixed with the transfection reagents were seeded onto poly-D-lysine–precoated, 96-well plates and grown for 48 h at 37 °C with 5 % CO2. Stable α2AAR-, β2AR- or GPR3-HaloTag/Nluc expressing cells were seeded 24 h before the experi-ment at a density of 800,000 cells/mL into white 96-well plates. To monitor changes in BRET in with conformational GPCR […]
experiment. White plates were used for BRET and luminescence measurements, black plates for FRET experiments and trans-parent plates for absorbance-based quantification of receptor surface expression levels.
For orientation: BRET reads energy transfer from a luciferase to a nearby fluorophore.

Assay [2] concerns the target T2, GPR3 (Homo sapiens, UniProt P46089).
T2 construct: host or cells: HEK293A, transient
Briefly: FRET/BRET cAMP biosensor in HEK293A cells cotransfected with GPR3. The format is cell-based. The conditions noted are these: cAMP biosensor; pcDNA vs GPR3 transfected HEK293A.
Description: With the first GPR3 ligands identified by using a conformational readout in our hands, we next wanted to understand whether these compounds could have been detected in a cAMP-based assay, which has been used extensively in the past to screen for GPR3 ligands. We therefore tested rac-VH1/52, VH2/93 and VH3/115 in cells expressing a cAMP biosensor.
3 Effect of rac-VH1/52, VH2/93 and VH3/115 on GPR3-dependent cAMP production. (a–c) Vehicle-corrected BRET changes induced by rac-VH1/52 (a), VH2/93 (b) or VH3/115 (c) in HEK293A cells transiently transfected with a cAMP BRET sensor along with pcDNA or GPR3. […] Statistical significance was tested using Two-Way ANOVA followed by Sidak multiple comparison (*: […]; **: p < 0.01). […]
Plasmids and molecular cloning
The H187-EPAC-FRET sensor7 was kindly provided by K. Jalink (The Netherlands Cancer Institute, Amsterdam, The Nether-lands). The BRET-based cAMP sensor CAMYEL8 was kindly provided by Laura Humphrys (University of Regensburg, Regens-burg, Germany). Plasmids encoding the conformational biosensors α2AAR- and β2AR-HaloTag/Nluc9 and the Gs heterotrimer dissociation sensor10 were previously described. The expression plasmid encoding N-terminally HA-tagged GPR3 (cat. no.
#GPR003TN00) on a pcDNA3.1+ vector was obtained from the cDNA resource center (cdna.org). The Nluc and HaloTag in-serts were amplified with overhanging restriction sites from β2AAR- HaloTag/Nluc and ligated to the full-length C-terminus or inserted into icl3 of GPR3, respectively, to obtain the conformational biosensor GPR3-HaloTag/Nluc. Point mutants of GPR3-HaloTag/Nluc were generated using the GeneArt Site-directed Mutagenesis System (Thermo Fisher Scientific). All con-structs were verified by sequencing (Eurofins genomics).
Poly-D-lysine, polyethylenimin hydrochloride (linear; average Mn 20 000; PEI) , […], LPA , forskolin, NECA and bovine serum albumin (BSA) were obtained from Sigma Aldrich (Merck KGaA). Dulbecco's Modified Eagle's Medium (DMEM), Dul-becco's Phosphate -Buffered Saline (DPBS) and G -418 (Geneticin) were from Gibco. Diphenyleneiodonium chloride (DPI) and AF64394 were purchased from Tocris (Bio -Techne). The TMB (3, 3', 5, 5' tetramethyl benzidine) substrate reagent set was from BioLegend. The Nluc substrate furimazine and the red fluorescen t HaloTag dye, HaloTag® NanoBRET® 618 Ligand, were obtained in a single kit from Promega (cat. no. N1662). D-luciferin-sodium and the S1PR1 agonist III were from Med-ChemExpress. The Rluc substrate coelenterazine 400a was from NanoLight Technology (cat. no. 340 -10). White -wall, white - bottomed 96 -well, black -wall, black bottomed and transparent 96 -well microtiter plates were from Brand.
HEK293A cells were used for transient transfection and grown in Dulbecco’s modified Eagle’s medium (DMEM) supplemented with 2 mM glutamine, 10 % fetal calf serum, streptomycin (0.1 mg/mL), and penicillin (100 U/mL) at 37 °C with 5 % CO2. […]
as §1
Resuspended cells (300,000 cells/mL) were transfected in suspension with a total of 1 μg DNA/mL suspension using PEI (1 mg/ml stock solution; 3 μL PEI solution per μg DNA). For cAMP experiments with FRET- or BRET-based sensors, resuspended cells were transfected with 500 ng pcDNA, wildtype GPR3 or GPR3-HaloTag/Nluc constructs along with 500 ng of the FRET-or BRET-based cAMP sensor per mL cell suspension. For cAMP experiments with GloSensor™ 22F, resuspended cells were transfected with 250 ng pcDNA or GPCR along with 500 ng of a 1:1 mix of pcDNA with the GloSensor™ 22F per mL cell sus-pension. Cells mixed with the transfection reagents were seeded onto poly-D-lysine–precoated, 96-well plates and grown for 48 h at 37 °C with 5 % CO2. Stable α2AAR-, β2AR- or GPR3-HaloTag/Nluc expressing cells were seeded 24 h before the experi-ment at a density of 800,000 cells/mL into white 96-well plates. To monitor changes in BRET in with conformational GPCR […]

Another assay has as its system β2AR. In words: β2AR-HaloTag/Nluc conformational biosensor (negative control) in HEK293A cells. The conditions noted are these: β2AR-HaloTag/Nluc as negative control; HEK293A stable. The format is cell-based, human. The protocol: Initially, all 93 molecules were tested for activity at the GPR3 biosensor at a concentration of 1 μM (Figure a). […] Of the five compounds that emerged from the virtual screen, three–hereafter referred to as virtual hit 1–3, VH1/2/3–were selected for in-house chemical synthesis (compounds 52, 93, and 115; cf. Scheme , Figure S6), providing compounds of ≥99% purity for hit validation (NMR spectra: Figures S7–S142; HPLC purity: Figures S143–S218). For VH1, the racemic mix, rac-VH1/52, was synthesized and used for testing. Compounds 52, VH2/93, and VH3/115 (Figure S6) were then validated with the GPR3 biosensor including β2AR-HaloTag/Nluc as a negative control.
BRET-based GPCR conformational sensor experiments
Cells expressing the conformational GPCR biosensors were grown for 24 h (stable cells) or 48 h (transiently transfected cells) in white 96-well plates and washed with 100 µl of HBSS. After washing, cells were incubated for 2 minutes with a 1/1000 solution of the furimazine stock solution (Promega; cat. no. N1662). Three baseline BRET reads were recorded and averaged prior to the addition of serial dilutions of ligands or veh icle control and subsequent BRET reads. All experiments were con-ducted at 37 °C. BRE T donor emission was quantified with a 470/80 nm monochromator. BRET acceptor emission was quan-tified using a 660/100 nm monochromator. Experiments were carried out using a CLARIOstar plate reader. […]
FRET and BRET ratios were defined as acceptor emission/donor emission. […] To quantify ligand-induced changes ΔFRET and ΔBRET were calculated for each well as a percent over basal ([(Ratiostim − Ratiobasal)/Ratiobasal] × 100). […]
Data from FRET/BRET experiments were fitted using a three-parameter fit. Z-factors expressing the high-throughput suita-bility were calculated with the following equation: […]
Commercially available chemicals and solvents were purchased from standard commercial suppliers (Merck (Darmstadt, Ger-many), Sigma-Aldrich (Munich, Germany), Acros Organics (Geel, Belgium), Alfa Aesar (Karlsruhe, Germany), abcr (Karlsruhe, Germany), BLD Pharmatech (Reinbek, Germany) or TCI Europe (Zwijndrecht, Belgium) and were used as received. Deuter-ated solvents for nuclear magnetic resonance (1H NMR and 13C NMR) spectra were purchased from Deutero GmbH (Kastel-laun, Germany). All reactions carried out with dry solvents were accomplished in dry flasks under nitrogen or argon atmos-phere. For the preparation of buffers, HPLC eluents, and stock solutions millipore water was used. […] The reactions were monitored by thin layer chromatography (TLC) on Merck silica gel 60 F254 aluminium sheets and spots were visualized under UV light at 254 nm, by potassium permanganate or ninhydrin staining. […]

T1 sequence (P46089 with tags, fused parts or gaps with the stated changes): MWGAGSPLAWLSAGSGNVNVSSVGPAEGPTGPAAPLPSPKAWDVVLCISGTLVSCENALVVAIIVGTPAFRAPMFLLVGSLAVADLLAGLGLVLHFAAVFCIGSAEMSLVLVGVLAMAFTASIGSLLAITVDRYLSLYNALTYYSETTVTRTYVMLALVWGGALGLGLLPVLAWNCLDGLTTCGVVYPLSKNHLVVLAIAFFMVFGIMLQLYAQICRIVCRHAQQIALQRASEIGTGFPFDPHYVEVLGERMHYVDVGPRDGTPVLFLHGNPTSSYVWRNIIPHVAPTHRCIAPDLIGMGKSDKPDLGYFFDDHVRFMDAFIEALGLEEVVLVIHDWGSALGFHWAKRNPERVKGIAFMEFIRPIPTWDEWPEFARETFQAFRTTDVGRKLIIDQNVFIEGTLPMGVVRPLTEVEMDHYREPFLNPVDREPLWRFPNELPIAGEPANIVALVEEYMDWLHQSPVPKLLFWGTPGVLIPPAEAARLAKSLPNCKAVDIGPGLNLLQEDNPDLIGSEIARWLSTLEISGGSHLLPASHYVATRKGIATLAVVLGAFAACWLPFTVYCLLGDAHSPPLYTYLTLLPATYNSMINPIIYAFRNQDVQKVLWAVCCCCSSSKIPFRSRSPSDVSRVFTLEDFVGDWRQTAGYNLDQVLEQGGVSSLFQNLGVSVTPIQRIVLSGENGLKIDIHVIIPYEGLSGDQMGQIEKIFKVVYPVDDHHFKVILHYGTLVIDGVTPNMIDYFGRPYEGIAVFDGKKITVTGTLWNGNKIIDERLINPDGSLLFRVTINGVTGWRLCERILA
T2 sequence (P46089 whole entry): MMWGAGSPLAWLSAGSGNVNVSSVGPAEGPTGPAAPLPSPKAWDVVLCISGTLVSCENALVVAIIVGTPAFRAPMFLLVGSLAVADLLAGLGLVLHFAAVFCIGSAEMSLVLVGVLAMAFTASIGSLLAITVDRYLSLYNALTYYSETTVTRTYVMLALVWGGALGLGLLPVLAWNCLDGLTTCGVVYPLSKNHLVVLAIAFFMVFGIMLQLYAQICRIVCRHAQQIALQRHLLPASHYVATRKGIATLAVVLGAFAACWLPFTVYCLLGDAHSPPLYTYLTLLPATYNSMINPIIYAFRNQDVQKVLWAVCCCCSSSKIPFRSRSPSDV

Take `CC(C)Oc1cc(Cl)ccc1CNc1cc(-c2ccccc2)nc2ncnn12` [AF64394, reference compound]: the “BRET response of GPR3 biosensor (direction, words)” value (shortened to “BRET response of GPR3 biosensor”) on GPR3 [1] is “time- and ligand-concentration-dependent increase in BRET”. Moreover, the concentration giving a half-maximal response (EC50) (commonly the concentration that produces a half-maximal response) at GPR3 [1] (transiently expressing HEK293A cells, read-out: EC50 of BRET increase at conformational GPR3 biosensor) was 161 nM. The “GPR3-dependent change in cAMP” value on GPR3 [2] was “concentration-dependent reduction of cAMP”.

Take `CCCCCCCC/C=C\CCCCCCCC(=O)NCCO` [OEA, reference compound]: the “BRET response of GPR3 biosensor” value on GPR3 [1] is “concentration-dependent decreases in BRET”.

With `O=C(C1COc2ccccc2O1)N1CCC(Cn2cncn2)(C2CCCCC2)CC1` (stereo not shown) [compound 93], the “specificity of conformational response for GPR3 vs β2AR-HaloTag/Nluc” value in the assay with β2AR was “concentration-dependent and GPR3-specific conformational changes”. At GPR3 [2], the “GPR3-dependent change in cAMP” value is on record as “to a much lesser extent”.

For the compound `CCCCCCCC/C=C\CCCCCCCC(N)=O` [oleamide, reference compound], at GPR3 [1], the “BRET response of GPR3 biosensor” value is on record as “concentration-dependent decreases in BRET”.
